Data from ChEMBL document CHEMBL5038667, “Discovery of an Amino Acid-Modified Near-Infrared Aza-BODIPY Photosensitizer as an Immune Initiator for Potent Photodynamic Therapy in Melanoma” (J Med Chem, 2022).
In brackets after ≈: the same amount, converted by molar mass. Activity calls are given as the source filed them. The calls are words filed in the database; no cut-off is given here.

Tests used:
[1] = Toxicity in C57BL/6 mouse harboring mouse B16-F10 cells assessed as change in body weight at 2 mg/kg, iv irradiated with 60 J/cm^2 laser light measured upto 14 days; format: organism-based; conditions: in vivo, 336 h, time <=14 day
[2] = tested on: B16-F10; test: Antitumor activity against mouse B16-F10 cells implanted in C57BL/6 mouse assessed as inhibition of tumor growth at 2 mg/kg, iv irradiated with 60 J/cm^2 laser light by IVIS imaging analysis measured upto 48 hrs; format: functional, organism-based; conditions: time hrs <=48
[3] = tested on: B16-F10; test: Dark toxicity against mouse B16-F10 cells assessed as reduction in cell viability incubated for 16 hrs by CCK-8 assay; format: cell-based; conditions: B16-F10, 16 h
[4] = tested on: A-375; test: Dark toxicity against human A-375 cells assessed as reduction in cell viability incubated for 16 hrs by CCK-8 assay; format: functional, cell-based; conditions: A-375, 16 h
[5] = tested on: B16-F10; test: Antitumor activity against mouse B16-F10 cells implanted in C57BL/6 mouse assessed as tumor regrowth at 2 mg/kg, iv upto after 6 days irradiated with 60 J/cm^2 laser light by IVIS imaging analysis; format: functional, organism-based; conditions: time 6.0 day
[6] = tested on: HeLa; test: Dark toxicity against human HeLa cells assessed as reduction in cell viability incubated for 16 hrs by CCK-8 assay; format: functional, cell-based
[7] = Lipophilicity, logP of compound; format: physicochemical; conditions: octanol/water
[8] = Aqueous solubility in PBS; format: physicochemical; conditions: buffer
[9] = Phototoxicity against human A-375 cells assessed as reduction in cell viability incubated for 16 hrs followed by irradiated with 54 J/cm^2 of light dose and further incubated for 24 hrs by CCK-8 assay; format: toxicity, cell-based; conditions: A-375, light or radiation study
[10] = Phototoxicity against human HeLa cells assessed as reduction in cell viability incubated for 16 hrs followed by irradiated with 54 J/cm^2 of light dose and further incubated for 24 hrs by CCK-8 assay; format: toxicity, cell-based; conditions: light or radiation study
[11] = Phototoxicity against mouse B16-F10 cells assessed as reduction in cell viability incubated for 16 hrs followed by irradiated with 54 J/cm^2 of light dose and further incubated for 24 hrs by CCK-8 assay; format: toxicity, cell-based; conditions: B16-F10, light or radiation study
[12] = tested on: B16-F10; test: Antitumor activity against mouse B16-F10 cells implanted in C57BL/6 mouse assessed as tumor destruction at 2 mg/kg, iv irradiated with 60 J/cm^2 laser light measured after 14 days by hematoxylin and eosin based microscopic analysis; format: functional, organism-based; conditions: time 14.0 day

SMILES | logP [7] | solubility [8] [µM] | Activity [1] | Activity [2] | IC50 [3] [µM] | IC50 [4] [µM] | Activity [5] | IC50 [6] [µM] | IC50 [9] [nM] | IC50 [10] [nM] | IC50 [11] [nM] | Activity [12]
C=Cc1c(C)c2cc3nc(c(CC(=O)O)c4[nH]c(cc5nc(cc1[nH]2)C(C)=C5CC)c(C)c4C(=O)O)[C@@H](CCC(=O)O)[C@@H]3C [CHLORIN E6] |  |  | Non-Toxic | inactive |  |  |  |  |  |  |  | 
COc1ccc(C2=[N+]3C(=Nc4c(-c5ccccc5)cc(-c5ccc(OC)cc5)n4[B-]3(F)F)C(c3ccccc3)=C2I)cc1 | > 3 | < 1 | Non-Toxic | Active | > 50 | > 50 | Active | > 50 | 254 | 76 | 276 | Active
COc1ccc2c(c1)CCc1c(-c3ccccc3)c3n(c1-2)[B-](F)(F)[N+]1=C(c2ccc(OCC(=O)N[C@@H](CCC(=O)O)C(=O)O)cc2)C(I)=C(c2ccccc2)C1=N3 | -0.71 | 110 (≈ 96.7 µg/mL) |  |  | > 250 | > 250 |  | > 250 | 284 | 119 | 212 | 
COc1ccc(C2=[N+]3C(=Nc4c(-c5ccccc5)c5c(n4[B-]3(F)F)-c3ccc(OCC(=O)N[C@@H](CCC(=O)O)C(=O)O)cc3CC5)C(c3ccccc3)=C2I)cc1 | -0.74 | 158 (≈ 139 µg/mL) |  |  | > 250 | > 250 |  | > 250 | 166 | 78 | 159 | 

Continued, in another order:

logP [7] | solubility [8] [µM] | SMILES | Activity [1] | Activity [2] | IC50 [3] [µM] | IC50 [4] [µM] | Activity [5] | IC50 [6] [µM] | IC50 [9] [nM] | IC50 [10] [nM] | IC50 [11] [nM] | Activity [12]
0.94 | 28.4 (≈ 21.4 µg/mL) | COc1ccc(C2=[N+]3C(=Nc4c(-c5ccccc5)c5c(n4[B-]3(F)F)-c3ccc(OCC(=O)O)cc3CC5)C(c3ccccc3)=C2I)cc1 |  |  | > 50 | > 50 |  | > 50 | 142 | 56 | 104 | 
> 3 | < 1 | COc1ccc(C2=[N+]3C(=Nc4c(-c5ccccc5)c5c(n4[B-]3(F)F)-c3ccc(OC)cc3CC5)C(c3ccccc3)=C2I)cc1 |  |  |  |  |  |  |  |  |  | 
0.92 | 21.8 (≈ 16.4 µg/mL) | COc1ccc2c(c1)CCc1c(-c3ccccc3)c3n(c1-2)[B-](F)(F)[N+]1=C(c2ccc(OCC(=O)O)cc2)C(I)=C(c2ccccc2)C1=N3 |  |  | > 50 | > 50 |  | > 50 | 320 | 274 | 346 | 
-0.73 | 115 (≈ 100 µg/mL) | COc1ccc2c(c1)CCc1c(-c3ccccc3)c3n(c1-2)[B-](F)(F)[N+]1=C(c2ccc(OCC(=O)N[C@@H](CC(=O)O)C(=O)O)cc2)C(I)=C(c2ccccc2)C1=N3 |  |  | > 250 | > 250 |  | > 250 | 148 | 55 | 126 | 
